Measured values: PMC3446762 (Viruses, 2012)

Legend:
EBOV = details: 20 µM; cited from earlier work
host cells = details: cited from earlier work
HeLa cells [1] = details: human
HeLa cells [2] = details: human; remark: listed apart in the source
EBOV Zaire-95 isolate = format: cell-based, Ebola (EBOV)
MARV Ci67 isolate = format: cell-based, Marburg (MARV)

CCN(CC)CCCNc1cc(C)nc2ccc3c(ccc4nc(C)cc(NCCCN(CC)CC)c43)c12 [Compound 2]
EBOV inhibition (EBOV): 13%
toxicity to host cells (host cells): toxic to host cells

Cc1cc(NCCN2CCOCC2)c2c(ccc3c2ccc2nc(C)cc(NCCN4CCOCC4)c23)n1 [Compound 1]
EBOV inhibition (EBOV): 53%
toxicity to host cells (host cells): non-toxic to host cells

CCN(CC)CCCNc1ccnc2ccc3c(ccc4nccc(NCCCN(CC)CC)c43)c12 [Compound 4]
cellular toxicity (reduction in cell number), EBOV assay (HeLa cells [1]): 80–90%
cellular toxicity (reduction in cell number), MARV assay (HeLa cells [2]): 80–90%
cellular protection during EBOV infection (EBOV Zaire-95 isolate): 100%
cellular protection during MARV infection (MARV Ci67 isolate): 100%
